Test results taken from patent US11559231B2, “System and method for determining a discrimination index for fear-potentiated startle” (Rosalind Franklin University of Medicine and Science, priority 2018, dated 2023).
Structures can show the parent of a compound that is named as a salt.

Target: T1, OT receptors (OTR) in the BNSTdl (Rattus norvegicus, UniProt P70536)
T1 construct: OT (100 ng), OTA (200 ng), or ACSF (all in volume of 0.5 μl per side) was injected bilaterally into the BNSTdl; from tissue; host or cells: brain (dorsolateral bed nucleus of the stria terminalis) of live male Sprague-Dawley rats
T1 sequence (P70536 1-388): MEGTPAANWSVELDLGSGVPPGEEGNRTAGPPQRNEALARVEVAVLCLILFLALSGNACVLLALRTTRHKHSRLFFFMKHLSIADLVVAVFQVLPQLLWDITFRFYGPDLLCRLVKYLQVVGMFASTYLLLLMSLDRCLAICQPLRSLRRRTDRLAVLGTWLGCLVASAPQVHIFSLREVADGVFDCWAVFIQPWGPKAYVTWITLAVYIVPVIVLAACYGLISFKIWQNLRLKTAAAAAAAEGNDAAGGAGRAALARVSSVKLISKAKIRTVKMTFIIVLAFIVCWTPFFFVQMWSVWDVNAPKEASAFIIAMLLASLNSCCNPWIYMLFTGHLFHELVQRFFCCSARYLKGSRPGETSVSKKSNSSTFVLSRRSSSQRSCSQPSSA
Assay: Fear-potentiated startle (FPS): intra-BNSTdl OT or OTA before cued fear conditioning, then fear recall testing
Assay type: in vivo
Conditions: for TREATMENT effect on cued fear (percentage change of startle amplitude): OT 100 ng or OTA 200 ng bilateral intra-BNSTdl 10 min before fear conditioning, recall 24 h later in context B, P=0.0981; for TREATMENT effect on cued fear (percentage change of startle amplitude) / total discrimination index (DI) for the FPS session: one-way ANOVA ACSF/OT/OTA; for total discrimination index (DI) for the FPS session: all trials, P=0.1492; for discrimination between cued and non-cued fear (summary statement): infused into the BNSTdl before fear conditioning, FPS; for TREATMENT effect on cued fear (percent change), negative controls: injection sites outside the BNST, P=0.3990; for discrimination index over four time blocks, negative controls: injection sites outside the BNSTdl, P=0.5828; for discrimination index over four time blocks, negative controls / startle amplitude, light-noise vs noise-alone trials: effect of TREATMENT: two-way repeated measures ANOVA; for mean shock reactivity during the fear conditioning session / TREATMENT effect on percentage change of contextual fear / TREATMENT effect on percentage change of non-cued fear / startle amplitude, light-noise vs noise-alone trials: effect of TREATMENT: intra-BNSTdl ACSF, OT 100 ng, OTA 200 ng; for mean shock reactivity during the fear conditioning session: P=0.8684; for TREATMENT effect on percentage change of contextual fear: context A, day 5; for TREATMENT effect on percentage change of non-cued fear: context B, P=0.8993; for startle amplitude, light-noise vs noise-alone trials: effect of TREATMENT: P=0.8478
Procedure: A total of 75 rats were used for FPS experiments. The ACSF-treated group consisted of 23 rats, whereas there were 14 OT and 16 OTR antagonist (OTA)-treated rats included in the main analysis. […] These rats were analyzed as negative controls.
Stereotaxic surgery technique was identical to above except that guide cannulas were implanted bilaterally instead of a microdialysis probe (Moaddab and Dabrowska, 2017).
OT (100 ng), OTA (200 ng), or ACSF (all in volume of 0.5 μl per side) was injected bilaterally into the BNSTdl through a microinjector (28-gauge, 7 mm length; Plastics One, Roanoke, Va.) as described before (Moaddab and Dabrowska, 2017). Doses of OT and OTA were chosen based on previous studies on fear and anxiety in rats (Bale et al., 2001; Toth et al., 2012; Lahoud and Maroun, 2013; Neumann and Slattery, 2016; Moaddab and Dabrowska, 2017). Rats were assigned based on a second pre-test ASR into three treatment groups. Fear conditioning sessions were performed 10 min after the intra-BNSTdl injections.
FPS procedures were modified based on previous studies and according to protocol described in detail before (Walker et al., 2009; Missig et al., 2010; Ayers et al., 2011; Moaddab and Dabrowska, 2017). On days 1 and 2, rats underwent two pre-test sessions. On day 3 (fear conditioning), animals were placed in cylindrical enclosures containing a grid floor conveying foot shocks (as above). After 5 min acclimation, animals received 10 presentations of a 3.7 s cue light (CS), each co-terminating with a 0.5 s foot shock (US; 0.5 mA, inter-trial-interval 60-180 s). Background noise was absent during the conditioning session. Enclosures and chambers were cleaned with PREempt RTU disinfectant solution (Virox Technologies, Oakville, Canada) before and after each fear […] conditioning session (context A). Twenty-four hours later, on day 4, rats were tested for FPS expression (recall test) in context B. After 5 min of acclimation, they were exposed to 50 startle-eliciting WNBs (as above) and levels of cued and non-cued fear were measured. A background white noise of 70 dB continuously played throughout the session. The session consisted of 10 baseline startle trials (excluded from the analysis) followed by an additional 40 trials, with half presented in the presence of the cue light (CS+, light-noise) and the other half without the CS (CS-, noise-alone) in a pseudorandom order (inter-trial-interval 30 s). To make context A distinct from context B, enclosures and chambers were cleaned with 70% ethanol before and after the […] (different than in fear conditioning). The grid floor was also removed from the enclosures during cued FPS testing. In addition, a different experimenter from the training session performed the FPS testing session. On day 5, the same rats were tested for contextual fear recall in context A, where after 10 baseline startle trials (excluded from the analysis), startle amplitude was measured during 40 additional CS− trials (noise-alone, inter-trial-interval 30 s, FIG. 5, C).
Startle amplitude was defined as the maximum peak voltage within the first 200 ms after onset of the WNB. Shock reactivity amplitude was recorded during the fear conditioning session and was defined as the maximum peak voltage that occurred during the 500 ms foot shock delivery. Cued, non-cued, and contextual fear, were calculated as percent change scores of startle amplitude based on previous FPS studies (Walker et al., 2009; Missig et al., 2010; Ayers et al., 2011; Moaddab and Dabrowska, 2017).

Compound | discrimination index in the fourth time block of fear memory recall, vs ACSF-treated group (OT 100 ng intra-BNSTdl, Bonferroni post hoc, P=0.0121) | TREATMENT effect on cued fear (percentage change of startle amplitude) | total discrimination index (DI) for the FPS session | discrimination between cued and non-cued fear (summary statement) | TREATMENT effect on cued fear (percent change), negative controls | discrimination index over four time blocks, negative controls | mean shock reactivity during the fear conditioning session | TREATMENT effect on percentage change of contextual fear | TREATMENT effect on percentage change of non-cued fear | startle amplitude, light-noise vs noise-alone trials: effect of TREATMENT | discrimination index in the fourth time block of fear memory recall, OT vs OTA-treated groups (OT 100 ng vs OTA 200 ng intra-BNSTdl, Bonferroni post hoc, P=0.0007) | OTA effect on cued fear vs ACSF (OTA 200 ng intra-BNSTdl, un-paired t-test vs ACSF, P=0.0763)
CC[C@H](C)[C@@H]1NC(=O)[C@H](Cc2ccc(O)cc2)NC(=O)[C@@H](N)CSSC[C@@H](C(=O)N2CCC[C@H]2C(=O)N[C@@H](CC(C)C)C(=O)NCC(N)=O)NC(=O)[C@H](CC(N)=O)NC(=O)[C@H](CCC(N)=O)NC1=O [OT, OT acetate salt] | significant differences in the discrimination indices | a trend in the TREATMENT effect on cued fear | not significantly different | significantly increases discrimination between cued and non-cued fear | no significant effect of TREATMENT on cued fear | no significant main effect of TREATMENT | not different | no TREATMENT effect | no TREATMENT effect | no main effect of TREATMENT |  | 
(d(CH2)5^1, D-Tyr^2, Thr4, Orn8, des-Gly-NH2 9)-vasotocin trifluoroacetate salt [OTA] |  | a trend in the TREATMENT effect on cued fear | not significantly different | disables this discrimination | no significant effect of TREATMENT on cued fear | no significant main effect of TREATMENT | not different | no TREATMENT effect | no TREATMENT effect | no main effect of TREATMENT | significant differences in the discrimination indices | a trend in the OTA effect on cued fear
